The values below come from paper PMC9315041, “Conformationally Constrained Sialyl Analogues as New Potential Binders of h‐CD22” (Chembiochem, 2022).

Experiment [1] deals with T1, h-CD22 (Siglec-2) (Homo sapiens, UniProt P20273).
T1 sequence (P20273 20-687 limits assumed): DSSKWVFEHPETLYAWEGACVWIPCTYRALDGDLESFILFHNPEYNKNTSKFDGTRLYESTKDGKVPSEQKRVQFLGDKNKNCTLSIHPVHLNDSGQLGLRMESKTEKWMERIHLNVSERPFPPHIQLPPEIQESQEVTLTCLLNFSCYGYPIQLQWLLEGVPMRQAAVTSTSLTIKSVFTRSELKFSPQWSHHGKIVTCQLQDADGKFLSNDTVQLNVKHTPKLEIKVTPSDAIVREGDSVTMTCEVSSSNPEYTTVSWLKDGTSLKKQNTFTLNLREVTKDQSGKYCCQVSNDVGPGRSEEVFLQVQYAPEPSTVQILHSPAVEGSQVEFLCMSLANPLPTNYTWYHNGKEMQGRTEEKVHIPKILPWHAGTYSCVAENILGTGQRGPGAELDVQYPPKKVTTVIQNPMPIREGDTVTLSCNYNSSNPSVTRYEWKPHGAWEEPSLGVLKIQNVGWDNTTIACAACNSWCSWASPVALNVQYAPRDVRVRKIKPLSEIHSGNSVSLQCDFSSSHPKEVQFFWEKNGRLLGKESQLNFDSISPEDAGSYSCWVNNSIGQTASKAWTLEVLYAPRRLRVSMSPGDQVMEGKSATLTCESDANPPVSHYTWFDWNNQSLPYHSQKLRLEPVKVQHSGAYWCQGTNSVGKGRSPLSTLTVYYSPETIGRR
Description: intrinsic tryptophan fluorescence titration; STD NMR and tr-NOESY. The experiment is classed as binding. An excerpt:
intrinsic tryptophan fluorescence titration; STD NMR and tr-NOESY on h-CD22 (Siglec-2) | thus proving the complex formation.

In experiment [2] the target is T1, h-CD22 (Siglec-2). Description: SPR (CD22 immobilized on protein A chip); STD NMR. The experiment is classed as binding.

In general, Kd refers to the equilibrium constant for the complex coming apart. The low end stands for higher affinity, the high end for lower affinity. As to `CC(=O)N[C@H]1[C@H]([C@H](O)[C@H](O)CO)OC(OC[C@H]2O[C@@H]3OC4=C(S[C@@H]3[C@@H](O)[C@H]2O)C(=O)N[C@H](C(=O)O)C4)(C(=O)O)C[C@@H]1O` (some centres unmarked) [compound 1, Sialyl-TnThr analogue], the affinity on h-CD22 (Siglec-2) [1], expressed as Kd, was 2 ± 0.1 µM.
`CC(=O)N[C@H]1[C@H]([C@H](O)[C@H](O)CNC(=O)c2ccc(-c3ccccc3)cc2)OC(OC[C@H]2O[C@@H]3OC4=C(S[C@@H]3[C@@H](O)[C@H]2O)C(=O)N[C@H](C(=O)O)C4)(C(=O)O)C[C@@H]1O` (some centres unmarked) [compound 2, sialo-derivative 2] came in with a Kd on h-CD22 (Siglec-2) [2] of 13.5 ± 2.6 µM.
